Tests used:
[1] = test system: human lens epithelial cells (LECs); assay: Confluent LEC monolayers exposed to solutions; MTT cell viability and microscopy; format: cell-based
Description: (§1) As described below, the confluent monolayers of LECs, CEDCs, and RPECs grown in 96-well flat-bottom plates are exposed to varying concentrations of NaCl (an osmolyte) solution. Two hundred μl of NaCl solution (prepared as described below) are added to each well at concentrations of 137 mM, 170 mM, 340 mM, 680 mM, 1360 mM and 2000 mM NaCl, respectively. The solutions have a pH of 8.0±0.4. The concentrations of NaCl correspond to final osmolarities of about 285 to 4000 mOsm/L, respectively.
(§2) The primary and first passages of human lens epithelial cells, human corneal endothelial cells, and human retinal-pigmented epithelial cells are cultured. The LECs, the CEDCs, and the RPECs are isolated from post-mortem eyes by using standard techniques of cell isolation and enzyme digestion. See Uebersax E D, Grindstaff R D and Defoe D M Exp Eye Res. 2000 March; 70(3): 381-90; Wagner L M, Saleh S M, Boyle D J, and Takemoto D J. Mol Vis. 2002 Mar. 14; 8: 59-66; Cammarata P R, Schafer G, Chen S W, Guo Z, and Reeves R E. Invest Ophthalmol Vis Sci. 2002 February; 43(2): 425-33; Rakic J M, Galand A, and Vrensen G F. Exp Eye Res. 2000 November; 71(5): 489-94. LECs and CEDCs are cultured in Eagle's minimum essential medium (MEM). RPECs are cultured in Ham's F10 medium, supplemented with 2 mM glutamine, 25 mmol/L Hepes, pH 7.4, 10 U/mL penicillin, and 10 μg/mL streptomycin and 15% heat-inactivated foetal cow serum (FCS). The primary cultured LECs, CEDCs, and RPECs are sub-cultured at 10^4 cells/wells in 96-well flat-bottom plates until they reached 90 to 100% confluence. These cells are grown to confluence in an incubator with a humidified atmosphere of 5% CO2 at 37° C. The cells are kept in a confluent state for overnight before assays.
(§3) After treatment, the treated cells are thoroughly washed, and cultured with fresh media for twelve hours before cell viability is assessed. The capability of these cells to survive at the indicated hypertonic stress levels is assessed by an MTT assay 12-24 hours post-exposure.
(§4) MTT assay is an assay to assess mitochondria function, performed as described by Mosmann (Mosmann, T. J Immunol Methods. 1983 Dec. 16; 65(1-2): 55-63. The tetrazolium salt 3-(4,5-dimethylthiazol-2-yl)-2,5-diphenyl tetrazolium bromide (MTT; supplied by Sigma Chemical Co.) is dissolved in Phosphate's Balanced Salt (PBS) Solutions at 5 mg/ml and sterilized by passage through a 0.22 μm Millipore filter. MTT stock solution is added to growth media at a ratio of 1 to 10. Cells are incubated with this growth media for three to four hours. In cells that are alive at the time of adding MTT, mitochondrial dehydrogenase cleaves the tetrazolium ring into a dark blue formazan reaction product, which builds up in the cell. MTT-reacted cultures are observed under brightfield microscopy without further processing. Cells in each well are scored as MTT-positive if they are completely filled with reaction product (in the case of unattached cells) or contain many formazan crystals emanating from multiple foci (in the case of attached or spread cells). MTT-reacted cultures are then lysised by dimethyl sulfoxide (DMSO) and read in a Microplate Reader to obtain a measure of cell viability.
Confluent monolayers of LECs are given three washes with Hank's Balanced Salt Solutions (HBSS) to remove FCS before the experiment. LECs are prepared in 96-well culture plates as in Example 1. These cells are exposed for about five to ten minutes to 200 μl/well of treatment solutions comprising increasing concentrations (˜135 mM, ˜170 mM, ˜340 mM, ˜680 mM, ˜1360 mM and ˜2000 mM) of NaCl (an osmolyte) in the presence and the absence of 30 μM frusemide (a co-transport interference agent, an ion transport mechanism interference agent). The treatment solutions have a pH of 8.0±0.4. After treatment, the treated cells are thoroughly washed, and cultured with fresh media. The viability of the treated LECs was determined by MTT assay 12-24 hours post-treatment as described in Example 1. […]

[2] = test system: human lens epithelial cells (LECs); assay: as above; format: cell-based; remark: listed apart in the source
[3] = test system: human corneal endothelial cells (CEDCs); assay: Confluent CEDC monolayers exposed to solutions; MTT cell viability; format: cell-based
Description: as §1
as §2, with “The primary cultured LECs, CEDCs, and RPECs are sub-cultured at 10^4 cells/wells in 96-well flat-bottom plates until they reached 90 to 100% confluence. These cells are grown to confluence in an incubator with a humidified atmosphere of 5% CO2 at 37° C. The cells are kept in a confluent state for overnight before assays.” left out
as §3
as §4, with “MTT-reacted cultures are observed under brightfield microscopy without further processing.” left out, “viability. […]” for “viability.”

[4] = test system: human retinal-pigmented epithelial cells (RPECs); assay: Confluent RPEC monolayers exposed to solutions; MTT cell viability; format: cell-based
Description: as §1, §2, §3, §4
Confluent monolayers of RPECs are prepared as described in Example 1. These cells are exposed for ten minutes to 200 μl/well of the solutions comprising increasing concentrations of NaCl (137 mM, 170 mM, 340 mM, 680 mM, 1360 mM and 2000 mM) at varying pH (8.4±0.5 and 10.6±0.5). The solutions of NaCl are prepared as described in Example 1. The pH of the solutions is adjusted with additions of 1 μl and 5 μl of 5N NaOH as described Example 3.
Confluent monolayers of LECs and RPECs are prepared as described in Example 1. […]
Confluent monolayers of LECs, CEDCs and RPECs are prepared as described in Example 1. […]
To assess whether there is any side effect of this treatment on other ocular cells, confluent monolayers of LECs, CEDCs and RPECs are prepared as described in Example 1. […]

[5] = test system: primary cultured LECs; assay: LECs on glass cover-slip, inverted phase-contrast microscopy; format: cell-based, human; conditions: ≦200 mM NaCl, 90 μM frusemide, 3 μl of 5N NaOH
Description: Confluent monolayers of LECs are prepared as described in Example 1 and grown on a glass cover-slip instead of 96-well flat bottom culture plates. The LECs are then thoroughly washed to remove serum.
Ten milliliters (10 mL) of the treatment solution containing ≦200 mM NaCl, 90 μM frusemide and 3 μl of 5N NaOH is prepared in a deep 35 mm petri-dish.
The cover-slips are then transferred to the petri-dish containing the treatment solution and are kept in the treatment solution for five to ten minutes. The treatment solution is then poured away, and the cover-slips along with detached LECs are thoroughly rinsed with a fresh HBSS solution with slight pressure using an aspiration/irrigation probe. After immediate examination and photography using inverted phase contrast microscope, the LECs are kept in culture for seven days with fresh medium to examine whether any residual cells would survive.

[6] = 137-2000 mM NaCl, within about five to ten minutes after addition
[7] = hypertonic stress of about 1380 mM NaCl, pH 8.0±0.4, MTT 12-24 hours post-exposure
[8] = ≧200 mM NaCl, 90 μM frusemide, 3 μl of 5N NaOH, about ten minutes

Q: Which results are given for `[Cl-].[Na+]` [NaCl, sodium chloride]?
A: LEC shrinkage and loss of adhesion [1, 6]: began to shrink, round up and lose adhesion from the monolayer in a dose-dependent manner; survival capability of the LECs (hypertonic shock NaCl concentration) ([1]; absence of frusemide): 200 mM; LECs sensitivity to hypertonic stress ([2]; 170 and 340 mM NaCl, pH 8.0 to 10.6, ten minutes): increases with increasing pH and increasing NaCl concentrations; LEC detachment and bursting ([2]; 170 or 340 mM NaCl, pH about 8.9±0.8): detach effectively from their substrates but do not burst significantly; LECs burst and die ([2]; 170 or 340 mM NaCl, pH about 10.6±0.5, within five minutes): greater than seventy five; LECs survive (cell viability) [2, 7]: about forty; LECs survive ([2]; rapid hypertonic shock with 1380 mM NaCl, absence of frusemide, pH 8.0±0.4): about 40%; shrinkage and loss of adhesion in CEDCs [3, 6]: not seen as significantly; CEDCs survive (cell viability) [3, 7]: more than eighty; survival level of RPECs ([4]; 137-2000 mM NaCl, pH raised from 8.4±0.5 to 10.6±0.5, ten minutes): dramatic decrease in the survival level; shrinkage and loss of adhesion in RPECs [4, 6]: not seen as significantly; RPECs survive (cell viability) [4, 7]: more than eighty

Q: `NS(=O)(=O)c1cc(C(=O)O)c(NCc2ccco2)cc1Cl` [frusemide] was tested. Which “LEC appearance at five minutes post-treatment” value [5] did it give?
A: The value was “rounded up and separating from their substrate”.

Q: What about the “LEC appearance at ten minutes post-treatment and after washing” value [5] of the same compound?
A: Its value is “substantially clear substrate”.

Q: And the “LECs shrink, are lost or die” value ([1]; 10 μM frusemide, ≦200 mM NaCl, 3 μl of 5N NaOH, about ten minutes)?
A: Its value is “more than 50%”.

Q: What about the LECs survive ([1]; 30 μM frusemide, rapid hypertonic shock with 340 mM NaCl, pH 8.0±0.4) of the same compound?
A: The LECs survive was “almost no cells survive”.

Q: What about the “LECs removed or killed” value ([1]; between 30 μM and 120 μM frusemide, ≦200 mM NaCl, 3 μl of 5N NaOH) of the same compound?
A: Its value is over 90%.

Q: What about the “survival capability of the LECs (hypertonic shock NaCl concentration)” value ([1]; presence of 30 μM frusemide) of the same compound?
A: The value was 170 mM.

Q: What about the “survival rate for LECs” value [2, 8] of the same compound?
A: Its value is “less than ten”.

Q: And the CEDCs survived [3, 8]?
A: The CEDCs survived was “more than seventy”.

Q: What about the “RPECs removed or killed” value ([4]; between 30 μM and 90 μM frusemide, ≦200 mM NaCl, 3 μl of 5N NaOH) of the same compound?
A: Its value is “few RPECs are removed or killed”.

Q: And the RPECs survived [4, 8]?
A: Its RPECs survived is “eighty”.
